According to ChEMBL document CHEMBL1201862, “PubChem BioAssay data set” (2004):
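Briefly, cells in 96-well plates were exposed to five compound concentrations for 48 h, and endpoints were estimated by linear interpolation. At the GI50, growth is halved.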 Calls of active or inactive are those of the source. Cut-off read from the data, not from the text of the source: active = GI50 up to about 1.1 µM and inactive = higher.

How the values were obtained:
Assay in all cases: inhibition of tumour cell growth, NCI panel, 48 h
SK-MEL-5 = system: SK-MEL-5
786-0 = system: 786-0
NCI-H226 = system: NCI-H226
A498 = system: A498
Malme-3M = system: Malme-3M
MCF7 = system: MCF7
Hs-578T = system: Hs-578T
HT-29 = system: HT-29
CCRF-CEM = system: CCRF-CEM
TK-10 = system: TK-10
SNB-75 = system: SNB-75
EKVX = system: EKVX
OVCAR-4 = system: OVCAR-4
SK-MEL-28 = system: SK-MEL-28
SK-OV-3 = system: SK-OV-3
UO-31 = system: UO-31
LOX IMVI = system: LOX IMVI
ACHN = system: ACHN
MDA-MB-231 = system: MDA-MB-231
SN12C = system: SN12C
COLO 205 = system: COLO 205
HOP-62 = system: HOP-62
SK-MEL-2 = system: SK-MEL-2
SNB-19 = system: SNB-19
SF-295 = system: SF-295
NCI-H23 = system: NCI-H23
NCI-H460 = system: NCI-H460
HOP-92 = system: HOP-92
MOLT-4 = system: MOLT-4
DU-145 = system: DU-145
CAKI-1 = system: CAKI-1
MDA-MB-435 = system: MDA-MB-435
RXF 393 = system: RXF 393
A549 = system: A549
SF-268 = system: SF-268
UACC-257 = system: UACC-257
BT-549 = system: BT-549
RPMI-8226 = system: RPMI-8226
HCT-116 = system: HCT-116
HL-60 = system: HL-60
M14 = system: M14
NCI/ADR-RES = system: NCI/ADR-RES
SW-620 = system: SW-620
MDA-N = system: MDA-N
IGROV-1 = system: IGROV-1
T47D = system: T47D
PC-3 = system: PC-3
HCC 2998 = system: HCC 2998
NCI-H522 = system: NCI-H522
SR = system: SR
OVCAR-8 = system: OVCAR-8
U-251 = system: U-251
HCT-15 = system: HCT-15
KM12 = system: KM12
OVCAR-5 = system: OVCAR-5
SF-539 = system: SF-539
OVCAR-3 = system: OVCAR-3
UACC-62 = system: UACC-62
K562 = system: K562

With `O=C(O)c1cc2c(cc1CC(Cc1ccc3c(c1)CCC3)C(=O)O)CCC2` (centres undefined) the GI50 (SK-MEL-5) was > 100 µM (inactive), the GI50 (786-0) was > 100 µM (inactive) and the GI50 (NCI-H226) was > 100 µM (inactive). The GI50 (A498) was > 100 µM (inactive), the GI50 (Malme-3M) was > 100 µM (inactive) and the GI50 (MCF7) was > 100 µM (inactive). The GI50 (Hs-578T) was > 100 µM (inactive), the GI50 (HT-29) was > 100 µM (inactive) and the GI50 (CCRF-CEM) was > 100 µM (inactive). For the same molecule, the GI50 (TK-10) was > 100 µM (inactive), the GI50 (SNB-75) was 98.9 µM (inactive) and the GI50 (EKVX) was > 100 µM (inactive). For the same molecule, the GI50 (OVCAR-4) was > 100 µM (inactive), the GI50 (SK-MEL-28) was > 100 µM (inactive) and the GI50 (SK-OV-3) was > 100 µM (inactive). For the same molecule, the GI50 (UO-31) was > 100 µM (inactive), the GI50 (LOX IMVI) was > 100 µM (inactive) and the GI50 (ACHN) was > 100 µM (inactive). The GI50 (MDA-MB-231) was > 100 µM (inactive), the GI50 (SN12C) was > 100 µM (inactive) and the GI50 (COLO 205) was > 100 µM (inactive). For the same molecule, the GI50 (HOP-62) was > 100 µM (inactive), the GI50 (SK-MEL-2) was > 100 µM (inactive) and the GI50 (SNB-19) was > 100 µM (inactive). For the same molecule, the GI50 (SF-295) was > 100 µM (inactive), the GI50 (NCI-H23) was > 100 µM (inactive) and the GI50 (NCI-H460) was > 100 µM (inactive). The GI50 (HOP-92) was 20.6 µM (inactive), the GI50 (MOLT-4) was > 100 µM (inactive) and the GI50 (DU-145) was > 100 µM (inactive). For the same molecule, the GI50 (CAKI-1) was > 100 µM (inactive), the GI50 (MDA-MB-435) was > 100 µM (inactive) and the GI50 (RXF 393) was > 100 µM (inactive). For the same molecule, the GI50 (A549) was > 100 µM (inactive), the GI50 (SF-268) was > 100 µM (inactive) and the GI50 (UACC-257) was > 100 µM (inactive). The GI50 (BT-549) was > 100 µM (inactive), the GI50 (RPMI-8226) was > 100 µM (inactive) and the GI50 (HCT-116) was > 100 µM (inactive). The GI50 (HL-60) was > 100 µM (inactive), the GI50 (M14) was > 100 µM (inactive) and the GI50 (NCI/ADR-RES) was > 100 µM (inactive). For the same molecule, the GI50 (SW-620) was > 100 µM (inactive), the GI50 (MDA-N) was > 100 µM (inactive) and the GI50 (IGROV-1) was > 100 µM (inactive). The GI50 (T47D) was > 100 µM (inactive), the GI50 (PC-3) was > 100 µM (inactive) and the GI50 (HCC 2998) was > 100 µM (inactive). The GI50 (NCI-H522) was > 100 µM (inactive), the GI50 (SR) was > 100 µM (inactive) and the GI50 (OVCAR-8) was > 100 µM (inactive). For the same molecule, the GI50 (U-251) was > 100 µM (inactive), the GI50 (HCT-15) was greater than 100 µM and the GI50 (KM12) was > 100 µM (inactive). The GI50 (OVCAR-5) was > 100 µM (inactive), the GI50 (SF-539) was > 100 µM (inactive) and the GI50 (OVCAR-3) was > 100 µM (inactive).
In the case of `O=c1oc2c(ccc3c(O)cccc32)c2c1CCCC2`, the GI50 (SK-MEL-5) is reported as 47.2 µM (inactive), the GI50 (786-0) is reported as 33.4 µM (inactive) and the GI50 (NCI-H226) is reported as > 100 µM (inactive). The GI50 (A498) was 27.7 µM (inactive), the GI50 (Malme-3M) was 68.9 µM (inactive) and the GI50 (MCF7) was 42.2 µM (inactive). The GI50 (Hs-578T) was 7.46 µM (inactive), the GI50 (HT-29) was > 100 µM (inactive) and the GI50 (CCRF-CEM) was > 100 µM (inactive). The GI50 (TK-10) was > 100 µM (inactive), the GI50 (SNB-75) was 4.85 µM (inactive) and the GI50 (EKVX) was 33.8 µM (inactive). For the same molecule, the GI50 (OVCAR-4) was > 100 µM (inactive), the GI50 (SK-MEL-28) was > 100 µM (inactive) and the GI50 (UO-31) was 21.1 µM (inactive). The GI50 (LOX IMVI) was 16.7 µM (inactive), the GI50 (ACHN) was 26.8 µM (inactive) and the GI50 (MDA-MB-231) was 17.4 µM (inactive). For the same molecule, the GI50 (SN12C) was > 100 µM (inactive), the GI50 (COLO 205) was > 100 µM (inactive) and the GI50 (HOP-62) was 18.9 µM (inactive). The GI50 (SK-MEL-2) was 3.52 µM (inactive), the GI50 (SNB-19) was 27.7 µM (inactive) and the GI50 (SF-295) was 14.5 µM (inactive). For the same molecule, the GI50 (NCI-H23) was 26.9 µM (inactive), the GI50 (NCI-H460) was 45.2 µM (inactive) and the GI50 (HOP-92) was 16.6 µM (inactive). For the same molecule, the GI50 (MOLT-4) was > 100 µM (inactive), the GI50 (UACC-62) was 4.71 µM (inactive) and the GI50 (DU-145) was > 100 µM (inactive). The GI50 (CAKI-1) was 32.2 µM (inactive), the GI50 (MDA-MB-435) was > 100 µM (inactive) and the GI50 (RXF 393) was 14.5 µM (inactive). The GI50 (A549) was 72.3 µM (inactive), the GI50 (SF-268) was 15 µM (inactive) and the GI50 (UACC-257) was > 100 µM (inactive). For the same molecule, the GI50 (BT-549) was 15.1 µM (inactive), the GI50 (RPMI-8226) was > 100 µM (inactive) and the GI50 (HCT-116) was > 100 µM (inactive). For the same molecule, the GI50 (HL-60) was > 100 µM (inactive), the GI50 (M14) was > 100 µM (inactive) and the GI50 (NCI/ADR-RES) was 46 µM (inactive). The GI50 (SW-620) was > 100 µM (inactive), the GI50 (MDA-N) was > 100 µM (inactive) and the GI50 (IGROV-1) was > 100 µM (inactive). For the same molecule, the GI50 (T47D) was 80.9 µM (inactive), the GI50 (PC-3) was > 100 µM (inactive) and the GI50 (K562) was > 100 µM (inactive). For the same molecule, the GI50 (HCC 2998) was 5.61 µM (inactive), the GI50 (NCI-H522) was 40 µM (inactive) and the GI50 (SR) was 4.55 µM (inactive). The GI50 (OVCAR-8) was 30.6 µM (inactive), the GI50 (U-251) was 15 µM (inactive) and the GI50 (KM12) was > 100 µM (inactive). The GI50 (OVCAR-5) was > 100 µM (inactive), the GI50 (SF-539) was 22.2 µM (inactive) and the GI50 (OVCAR-3) was > 100 µM (inactive).
